Measurements taken from US20210330821A1, “METHODS OF MAKING PROSTATE CANCER TREATMENT DECISIONS” (priority 2018, published 2021).

Experiment: OSPREY safety: drug-related adverse events after 18F-DCFPyL
Type: in vivo, human
Protocol: The coprimary endpoints of sensitivity and specificity of ^18F-DCFPyL PET/CT for detecting pelvic lymph node metastases were evaluated in Cohort A. Secondary endpoints included safety in both cohorts, positive predictive value (PPV) and negative predictive value (NPV) in Cohort A, and sensitivity and PPV in Cohort B. Three central, blinded, and independent readers evaluated the ^18F-DCFPyL scans. Histopathology served as the reference standard to which imaging findings were compared. FIG. 1 provides information regarding the study design and cohorts.
Co-primary endpoints of specificity and sensitivity of ^18F-DCFPyL PET/CT for detecting prostate cancer metastases in pelvic lymph nodes were evaluated in Cohort A. Key secondary endpoints included incidence of adverse events, positive predictive value (PPV) and negative predictive value (NPV) of ^18F-DCFPyL PET/CT imaging to detect pelvic lymph node metastases in Cohort A, sensitivity and PPV of ^18F-DCFPyL PET/CT imaging to detect prostate cancer within sites of metastasis or recurrence in Cohort B. Three central, blinded, and independent readers evaluated the ^18F-DCFPyL scans. Imaging findings were compared to histopathology as the truth standard.
Pts underwent image-guided biopsy.

O=C(O)CC[C@H](NC(=O)N[C@@H](CCCCNC(=O)c1ccc([18F])nc1)C(=O)O)C(=O)O [18F-DCFPyL]
Cohort B pts who experienced ≥1 drug-related AE (Cohort B, 117 men, dysgeusia and generalized rash): 1.7%
Severity of drug-related AEs (Cohort B, dysgeusia and generalized rash): mild (Grade 1)
Dysgeusia (drug-related adverse event) (both cohorts): 2.1%
Headache (drug-related adverse event) (both cohorts): 2.1%
Drug-related serious adverse events (both cohorts, 385 men): No drug-related serious adverse events were observed
Men who experienced ≥1 drug-related adverse event (both cohorts, 385 men): 7.0%
Tolerability (patients with PCa, OSPREY): generally well tolerated
